Experimental data published in patent publication US20110224240A1 (Myrexis, Inc., priority 2010, published 2011).

Assays:
[1] = test system: OVCAR-3; assay: 72 hour cytotoxicity, ATP-Lite cell viability; format: cell-based; settings: Homo sapiens, OVCAR-3, Ovarian, read-out: 72 Hour Cytotoxicity (IC50, nM ± SD)
Protocol: (§1) A P388 murine leukemia cell line was obtained from NCI, Frederick, Md. P388 cells were cultured in RPMI-1640 supplemented with 10% fetal bovine serum, 2 mM Glutamax, 1 mM sodium pyruvate, 0.1 mM non-essential amino acids and 10 mM HEPES. Cells were grown at 37° C. in a humidified 5% CO2 atmosphere. Exponentially growing P388 cells were plated at 5,000 cells/well in a 96-well flat-bottomed microtiter plate (Corning, Costar #3595, Lowell, Mass.). Twenty-four hours later, test compound was added to cells at final concentrations of 100 nM, 33.3 nM, 11.1 nM, 3.7 nM, 1.23 nM, 0.4 nM and 0.13 nM. Cellular viability was determined 72 hours later by measuring intracellular ATP with ATP-Lite assay system. The effect of compounds on cell viability was calculated by comparing the ATP levels of cells exposed to test compound with those of cells exposed to DMSO. A semi-log plot of relative ATP levels versus compound concentration was used to calculate the compound concentration required to inhibit growth by 50% (IC50). Data was analyzed by Prism software (GraphPad; San Diego, Calif.) by fitting it to a sigmoidal dose response curve.
(§2) A similar procedure was followed with six other cell lines and the results are shown in Table 1: HT-29, HCT-116, A549, OVCAR-3, MIAPaCa-2, and B16F1.

[2] = test system: B16F1; assay: 72 hour cytotoxicity, ATP-Lite cell viability; format: cell-based; settings: Mus musculus, B16-F1, B16F1, Melanoma, read-out: 72 Hour Cytotoxicity (IC50, nM ± SD)
Protocol: as §1, §2

[3] = test system: MIAPaCa-2; assay: 72 hour cytotoxicity, ATP-Lite cell viability; format: cell-based; settings: Homo sapiens, MIA PaCa-2, MIAPaCa-2, Pancreatic, read-out: 72 Hour Cytotoxicity (IC50, nM ± SD)
Protocol: as §1, §2

[4] = test system: A549; assay: 72 hour cytotoxicity, ATP-Lite cell viability; format: cell-based; settings: Homo sapiens, A549, Lung, read-out: 72 Hour Cytotoxicity (IC50, nM ± SD)
Protocol: as §1, §2

[5] = test system: HCT-116; assay: 72 hour cytotoxicity, ATP-Lite cell viability; format: cell-based; settings: Homo sapiens, HCT-116, Colorectal Carcinoma, read-out: 72 Hour Cytotoxicity (IC50, nM ± SD)
Protocol: as §1, §2

[6] = test system: HT-29; assay: 72 hour cytotoxicity, ATP-Lite cell viability; format: cell-based; settings: Homo sapiens, HT-29, Colorectal, read-out: 72 Hour Cytotoxicity (IC50, nM ± SD)
Protocol: as §1, §2

[7] = test system: MCF-7/VP (MRP-1); assay: Multidrug resistant cell assay, cytotoxicity; settings: Homo sapiens, MCF7-VP, 72 h, read-out: Various MDR Cell Line Cytotoxicity IC50
[8] = test system: P388 murine leukemia cell line; assay: 72 hour cytotoxicity, ATP-Lite cell viability; format: cell-based; settings: Mus musculus, P388, Lymphoma, read-out: 72 Hour Cytotoxicity (IC50, nM ± SD)
Protocol: as §1

## COc1ccc(N(C)c2nc(CN)nc3ccccc23)cc1 [Compound 1]
[1]
  IC50: 29 ± 20.1 nM
[2]
  IC50: 37 nM
[3]
  IC50: 56 nM
[4]
  IC50: 54 nM
[5]
  IC50: 7.6 ± 1.9 nM
[6]
  IC50: 29 ± 2 nM
[7]
  IC50: 13 nM
[8]
  IC50: 6.1 ± 2.2 nM
